The values that follow are results of earlier work, collected in patent US20210169075A1, “ANTIBIOFILM FORMULATIONS AND METHODS FOR MICROBIAL DECONTAMINATION” (priority 2019, published 2021).

≈ marks a conversion by molar mass, not a printed value.

For the data set the following is noted: aqueous.

In the case of `C=CC(=C)CCC=C(C)C` [Myrcene, myrcene], the solubility concentration was 4.09 µg/mL (≈ 30 µM).
